We go through 20 compounds from US7626042B2, “O-substituted hydroxyaryl derivatives” (Institute of Medicinal Molecular Design, Inc., priority 2002, dated 2009).

This assay relates to NF-κB activation. Nature of the assay: Inhibitory activity against NF-κB activation, luciferase reporter assay under TNF-α stimulation. Particulars: HepG2 cells, TNF-α 40 ng/ml, 4 hours; for inhibition at 1 µg/mL / inhibition at 10 µg/mL: Homo sapiens, read-out: Inhibitory Ratio of NF-κ B Activation(%). It is filed as cell-based, human. Summed up: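 HepG2 cells transfected with firefly luciferase reporter carrying five tandem NF-κB sites, incubated 6 to 24 hours, then cultured 4 hours with TNF-α (40 ng/ml) plus test compound. Luminescent luciferase read-out; inhibition expressed relative to activity without compound.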
A general note: In a reporter assay the amount or activity of a reporter protein is the signal.

As for `Cc1ccc(S(=O)(=O)Oc2ccc(Cl)cc2C(=O)Nc2cc(C(F)(F)F)cc(C(F)(F)F)c2)cc1` [Compound 47], the “Inhibitory Ratio of NF-κ B Activation(%)” value was 84.7% (Drug Concentration 1 μg/mL) and 92.5% (Drug Concentration 10 μg/mL). Regarding `O=C1CCC(=O)N(c2cc(C(F)(F)F)cc(C(F)(F)F)c2)C(=O)c2cc(Cl)ccc2O1` [Compound 114], where the note is “Drug Concentration 1 μg/mL”, the inhibition at 1 µg/mL turned out to be 97.2%. For the same compound, where the note is “Drug Concentration 10 μg/mL”, the inhibition at 10 µg/mL worked out at 98.5%. For `CC(C)Oc1ccc(Cl)cc1C(=O)Nc1cc(C(F)(F)F)cc(C(F)(F)F)c1` [Compound 96], the “Inhibitory Ratio of NF-κ B Activation(%)” value (Drug Concentration 1 μg/mL) turned out to be 54.1% and the “Inhibitory Ratio of NF-κ B Activation(%)” value (Drug Concentration 10 μg/mL) is 96.1%. For `CC(C)C[C@H](NC(=O)OC(C)(C)C)C(=O)Oc1ccc(Cl)cc1C(=O)Nc1cc(C(F)(F)F)cc(C(F)(F)F)c1` [Compound 26, 2-[N-(tert-butoxycarbonyl)-L-leucyl]oxy-5-chloro-N-[3,5-bis(trifluoromethyl)phenyl]-benzamide], the inhibition at 1 µg/mL (Drug Concentration 1 μg/mL) is 97.8%. For the same compound, the inhibition at 10 µg/mL (Drug Concentration 10 μg/mL) worked out at 98.9%. For `O=c1oc2ccc(Cl)cc2c(=O)n1-c1cc(C(F)(F)F)cc(C(F)(F)F)c1` [Compound 113], the inhibition at 1 µg/mL (Drug Concentration 1 μg/mL) was determined as 96.8%. For the same compound, the inhibition at 10 µg/mL (Drug Concentration 10 μg/mL) amounted to 97.9%.

For the compound `O=C(Cc1ccccc1)Oc1ccc(Cl)cc1C(=O)Nc1cc(C(F)(F)F)cc(C(F)(F)F)c1` [Compound 8], the “Inhibitory Ratio of NF-κ B Activation(%)” value reads like this: (Drug Concentration 1 μg/mL) 95.0%; (Drug Concentration 10 μg/mL) 97.9%.

On to `CC(=O)Oc1ccccc1C(=O)Oc1ccc(Cl)cc1C(=O)Nc1cc(C(F)(F)F)cc(C(F)(F)F)c1` [Compound 5], for which the “Inhibitory Ratio of NF-κ B Activation(%)” value reads like this: (Drug Concentration 1 μg/mL) 96.1%; (Drug Concentration 10 μg/mL) 98.0%. In the same order, the values of `CCCCCCCCCC(=O)Oc1ccc(Cl)cc1C(=O)Nc1cc(C(F)(F)F)cc(C(F)(F)F)c1` [Compound 3] are 96.1% and 98.4%. On the same counts, the results for `COc1ccc(C(C)(C)C)cc1C(=O)Nc1cc(C(F)(F)F)cc(C(F)(F)F)c1` [Compound 94] are 56.1% and 51.7%. For `O=C(Nc1cc(C(F)(F)F)ccc1Cl)c1cc(Cl)ccc1OP(=O)([O-])O.[Na+]` [Compound 125], the “Inhibitory Ratio of NF-κ B Activation(%)” value is reported as above 99.9% (Drug Concentration 1 μg/mL) and above 99.9% (Drug Concentration 10 μg/mL). `CC(C)(C)C(=O)c1sc(NC(=O)c2cc(Cl)ccc2OC(=O)N2CCOCC2)nc1C(C)(C)C` [Compound 92, 5-Chloro-N-{4-[(1,1-dimethyl)ethyl]-5-[(2,2-dimethyl)propionyl]thiazol-2-yl}-2-[(morpholinocarbonyl)oxy]benzamide]: for the setting “Drug Concentration 1 μg/mL”, the inhibition at 1 µg/mL stood at 86.3%. The inhibition at 10 µg/mL (Drug Concentration 10 μg/mL) worked out at 93.9%. In the case of `O=C(Nc1cc(C(F)(F)F)cc(C(F)(F)F)c1)c1cc(Cl)ccc1OCOC(=O)N1CCCCC1` [Compound 101, 5-Chloro-2-[(piperidinocarbonyl)oxy]methoxy-N-[3,5-bis(trifluoromethyl)phenyl]-benzamide], the inhibition at 1 µg/mL (Drug Concentration 1 μg/mL) is 41%. Moreover, under “Drug Concentration 10 μg/mL”, the inhibition at 10 µg/mL stood at 42.8%. With `COc1cc(NC(=O)c2cc(Br)ccc2OP(=O)([O-])O)cc(C(F)(F)F)c1.[Na+]` [Compound 149], the “Inhibitory Ratio of NF-κ B Activation(%)” value (Drug Concentration 1 μg/mL) is above 99.9%. In the case of `CC(C)(C)OC(=O)N[C@@H](Cc1ccccc1)C(=O)Oc1ccc(Cl)cc1C(=O)Nc1cc(C(F)(F)F)cc(C(F)(F)F)c1` [Compound 28, 2-[N-(tert-butoxycarbonyl)-L-phenylalanyl]oxy-5-chloro-N-[3,5-bis(trifluoromethyl)-phenyl]benzamide], the inhibition at 1 µg/mL (Drug Concentration 1 μg/mL) is 96.4%. In addition, for the setting “Drug Concentration 10 μg/mL”, the inhibition at 10 µg/mL stood at 98.4%.

With `O=C(Oc1ccc(Cl)cc1C(=O)Nc1cc(C(F)(F)F)cc(C(F)(F)F)c1)c1cccnc1` [Compound 6], the “Inhibitory Ratio of NF-κ B Activation(%)” value by setting is: (Drug Concentration 1 μg/mL) 94.4%; (Drug Concentration 10 μg/mL) 98.1%.

For the compound `CCOC(=O)C1CCN(C(=O)OCOc2ccc(Cl)cc2C(=O)Nc2cc(C(F)(F)F)cc(C(F)(F)F)c2)CC1` [Compound 103, 5-Chloro-2-({[4-(ethoxycarbonyl)piperidin-1-yl]carbonyl}oxy)methoxy-N-[3,5-bis(trifluoromethyl)phenyl]benzamide], the inhibition at 1 µg/mL (Drug Concentration 1 μg/mL) came to 40.4%. In addition, the inhibition at 10 µg/mL (Drug Concentration 10 μg/mL) was 45.9%. On the same counts, the results for `CC(C)C[C@H](NC(=O)[C@H](Cc1ccccc1)NC(=O)OC(C)(C)C)C(=O)Oc1ccc(Cl)cc1C(=O)Nc1cc(C(F)(F)F)cc(C(F)(F)F)c1` [Compound 35, 2-{N-[N-(tert-butoxycarbonyl)-L-phenylalanyl]-L-leucyl}oxy-5-chloro-N-[3,5-bis(trifluoromethyl)phenyl]benzamide] are 96.9% and 98.3%. Turning to `O=C(CNC(=O)Oc1ccc(Cl)cc1C(=O)Nc1cc(C(F)(F)F)cc(C(F)(F)F)c1)N[C@@H](Cc1ccccc1)C(=O)O` [Compound 62], the “Inhibitory Ratio of NF-κ B Activation(%)” value by setting is: (Drug Concentration 1 μg/mL) 96.8%; (Drug Concentration 10 μg/mL) 97.8%. `COc1ccc(Cl)cc1C(=O)Nc1cc(C(F)(F)F)cc(C(F)(F)F)c1` [Compound 93]: the “Inhibitory Ratio of NF-κ B Activation(%)” value runs as follows: (Drug Concentration 1 μg/mL) 44.3%; (Drug Concentration 10 μg/mL) 24.0%. On the same counts, the results for `O=C(COc1ccc(Cl)cc1)Oc1ccc(Cl)cc1C(=O)Nc1cc(C(F)(F)F)cc(C(F)(F)F)c1` [Compound 13] are 96.6% and 98.7%.
